Holding throughout (design): dose 400 mg/kg, route oral
Holding throughout (conditions): in vivo

Data set [1] has as its system Homo sapiens. The data set can be described thus: Toxicity in healthy human assessed as dizziness at 400 mg/kg, po administered as single dose. It counts as organism-based.
In data set [2] the test system is Homo sapiens. The data set can be described thus: Cardiotoxicity in healthy human assessed as change in corrected QT interval at 400 mg/kg, po within 3 hrs by ECG. It counts as toxicity, organism-based.
In data set [3] the test system is Homo sapiens. Description: Cardiotoxicity in healthy human assessed as change in corrected QT interval at 400 mg/kg, po within 12 hrs by ECG. It counts as toxicity, organism-based.
Data set [4] has as its system Homo sapiens. The data set can be described thus: Toxicity in healthy human assessed as headache at 400 […], po administered as single dose. The data set is classed as organism-based.
The subject of data set [5] is Homo sapiens. The data set can be described thus: Toxicity in healthy human assessed as nausea at 400 […], po administered as single dose. It counts as organism-based.
Data set [6] concerns Homo sapiens. The data set can be described thus: Toxicity in healthy human assessed as diarrhea at 400 mg/kg, po administered as single dose. It counts as organism-based.
Data set [7] has as its system Homo sapiens. The data set can be described thus: Toxicity in healthy human assessed as abdominal pain at 400 mg/kg, po administered as single dose. The data set is classed as organism-based, Abdomen.

The structures appear in SMILES notation.

`COc1c(N2C[C@@H]3CCCN[C@@H]3C2)c(F)cc2c(=O)c(C(=O)O)cn(C3CC3)c12` [MOXIFLOXACIN]: the Activity in the data set with Homo sapiens [1] is 0%; with Homo sapiens [2], “Non-toxic”; in the data set on Homo sapiens [4], 5%; in the data set with Homo sapiens [5] it was 3%; in the data set on Homo sapiens [6], 3%; in the data set with Homo sapiens [7], 5%. Besides, in the data set with Homo sapiens [3], the QTc change is on record as 10 ms.

The values above are taken from ChEMBL document CHEMBL1255486, “Effect of vicriviroc on the QT/corrected QT interval and central nervous system in healthy subjects” (Antimicrob Agents Chemother, 2010).
